{"source": "patent US6805878B2", "about": "“Transdermal administration of ACE inhibitors” (Noven Pharmaceuticals, Inc., priority 2001, dated 2004)", "key": {"[1]": {"experiment": "Human cadaver skin permeation (flux) study, modified Franz diffusion cells", "assay_type": "in vitro ADME", "details": "for flux of a dermal composition: carrier composition of Example 2, different cadaver skin, FIG. 1; for flux through skin (in words): enalapril ethyl ester prodrug compared with enalapril maleate form", "protocol": "(§1) Human cadaver skin permeation studies were performed to quantitatively determine the effective permeation of enalapril ethyl ester through the stratum corneum. The stratum corneum was obtained from split thickness, cryo-preserved cadaver skin by the heat separation technique (˜55°). Samples of 5/16″ diameter were cut from the laminate, in triplicate, and mounted onto ½″ cut pieces of the stratum corneum. These samples were then placed on modified Franz diffusion cells. The receptor was filled with 7.5 mL of 0.9% NaCl and 0.01% NaN3 in deionized water. The cells were maintained at a constant 32° C. and were magnetically stirred at approximately 300 rpm. At specified time points, samples of the receptor phase were taken with complete replacement of the receptor phase. These samples were quantified by high-performance liquid chromatography (HPLC) utilizing Waters HPLC instrumentation. C-8(15 cm×4.6 mm) 5 μm particle size columns ([…] made by MetaChem Technologies, Inc.; Torrance, Calif.) were used at 50° C. (column temperature). The mobile phase contained 50% acetonitrile: 50% buffer (10 mM KH2PO4, pH=2.7). The detection wavelength was 214 nm. HPLC flow rate is 1.5 mL/min."}, "[2]": {"tested_on": "esterase enzyme in the skin", "experiment": "Hydrolysis of penetrated prodrug in the skin after permeation", "assay_type": "in vitro ADME, Human", "protocol": "as §1\nMore than 50% of the penetrated enalapril ethyl ester was hydrolyzed into enalaprilat after permeation through the skin."}}, "note": "Structures can show the parent of a compound that is named as a salt.", "data": [{"smiles": "CCOC(=O)[C@H](CCc1ccccc1)N[C@@H](C)C(=O)N1CCC[C@H]1C(=O)OCC", "note": "[enalapril ethyl ester]", "values": [{"measurement": "flux of a dermal composition", "setting": "[1]", "result": 4.8, "unit": "µg/cm²/h"}, {"measurement": "flux through skin (in words)", "setting": "[1]", "result": "significantly greater"}, {"measurement": "penetrated enalapril ethyl ester hydrolyzed into enalaprilat", "setting": "[2]; after permeation through the skin", "result": "More than 50%"}, {"measurement": "hydrolysis of the ethyl ester group on the proline moiety", "setting": "[2]; by an esterase enzyme in the skin", "result": "selectively hydrolyzed"}]}, {"smiles": "CCOC(=O)[C@H](CCc1ccccc1)N[C@@H](C)C(=O)N1CCC[C@H]1C(=O)O", "note": "[enalapril maleate, reference compound]", "values": [{"measurement": "flux of a dermal composition", "setting": "[1]", "result": 0.2, "unit": "μg/cm^2/sec"}, {"measurement": "flux through skin (in words)", "setting": "[1]", "result": "negligible"}]}]}
